Test results from patent US20160201112A1, “NANOSENSOR FOR DETECTING THE ACTIVITY OF GLYCOSAMINOGLYCAN-CLEAVING ENZYMES AND USES THEREOF” (VIRGINIA COMMONWEALTH UNIVERSITY, priority 2013, published 2016).
Entries after “also recorded” stand apart in the source; their conditions may differ.

What was measured:
[1] = system: heparitinase; assay: Au-heparin-dye nanosensor fluorescence assay with heparitinase and OSCS-spiked heparin (96-well plate); format: biochemical; conditions: in the presence of 10% w/w OSCS
Protocol: (§1) Once it was established that enzyme action causes the fluorescence probe to recover from being quenched, a heparitinase enzyme inhibition study was carried out in the presence of OSCS-contaminated heparin. For this study, a mixture of heparitinase I, II, and III was incubated with (a) heparin (200 μg), (b) heparin with 10% w/w chondroitin sulfate A and C and (c) heparin with 10% w/w OSCS. The resulting oligosaccharides were then analyzed by analytical HPLC. […] The enzyme activity on the nanosensor should be maximal at low OSCS concentration and minimal at high OSCS concentration. Consequently, the fluorescence quenching of the dye should be minimal at low OSCS concentrations (and measured fluorescence should be high) and quenching should be maximal at high OSCS concentrations (and measured fluorescence should below).
In order to develop an analytical method and kit for determining contamination in heparin, serial dilutions of OSCS were performed at log increment concentrations from 0.1 μg/μL to 0.1 femtogram (fg)/μL. Next, standard heparin solutions (10 μg) were spiked serially with OSCS solutions from 1 μg (10% w/w) to 0.1 fg (10^−9% w/w) of OSCS “contamination” resulting in 11 separate tests. Heparin (10 μg) and OSCS (10 μg) were utilized as positive and negative controls, respectively. […]

[2] = system: mixture of heparitinase I, II, and III; assay: Heparitinase enzyme inhibition study, heparin disaccharides analysed by HPLC; format: biochemical; conditions: 10% w/w OSCS in heparin (90% heparin + 10% w/w OSCS)
Protocol: as §1

oversulfated chondroitin sulfate [OSCS]
heparitinase action on Au-heparin-dye nanosensor (fluorescence quenching) [1]: heparitinases could not act on the Au-heparin-dye nanosensor and fluorescence quenching was maintained
inhibition of heparitinase enzyme activity (HPLC profile of heparin disaccharides) [2]: completely inhibits the enzyme; also recorded: powerful inhibitor
